Laboratory results published in PubChem BioAssay AID1963841 (Molecular Pharmacology Branch, DTP, NCI, 2024).

Test system: 439559-082-T-J2-PDC spheroid viability
Assay: Anticancer human tumor 439559-082-T-J2-PDC patient-derived colon adenocarcinoma cell line growth inhibition [POLQ]
Settings: spheroids with HUVEC and MSC; for IC50: curve of first compound; for viability, T/C: stronger effect = lower value
Method in brief: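 Complex spheroid viability model combining PDC tumour cells with endothelial (HUVEC) and MSC stromal cells. Novobiocin, ART-558 or RP6685 were tested singly and in combination with standard and investigational anticancer drugs. Each was titrated in half-log steps from near clinical Cmax, or from 10 microM where Cmax was unknown.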

[1] = second compound 0.0316 µM, first compound 0.0316 µM
[2] = second compound 0.0316 µM, first compound 0.1 µM
[3] = second compound 0.0316 µM, first compound 0.316 µM
[4] = second compound 0.0316 µM, first compound 1 µM
[5] = second compound 0.0316 µM, first compound 3.16 µM
[6] = second compound 0.0316 µM, first compound 10 µM
[7] = second compound 0.1 µM, first compound 0.0316 µM
[8] = second compound 0.1 µM, first compound 0.1 µM
[9] = second compound 0.1 µM, first compound 0.316 µM
[10] = second compound 0.1 µM, first compound 1 µM
[11] = second compound 0.1 µM, first compound 3.16 µM
[12] = second compound 0.1 µM, first compound 10 µM
[13] = second compound 0.316 µM, first compound 0.0316 µM
[14] = second compound 0.316 µM, first compound 0.1 µM
[15] = second compound 0.316 µM, first compound 0.316 µM
[16] = second compound 0.316 µM, first compound 1 µM
[17] = second compound 0.316 µM, first compound 3.16 µM
[18] = second compound 0.316 µM, first compound 10 µM
[19] = second compound 1 µM, first compound 0.0316 µM
[20] = second compound 1 µM, first compound 0.1 µM
[21] = second compound 1 µM, first compound 0.316 µM
[22] = second compound 1 µM, first compound 1 µM
[23] = second compound 1 µM, first compound 3.16 µM
[24] = second compound 1 µM, first compound 10 µM
[25] = second compound 3.16 µM, first compound 0.0316 µM
[26] = second compound 3.16 µM, first compound 0.1 µM
[27] = second compound 3.16 µM, first compound 0.316 µM
[28] = second compound 3.16 µM, first compound 1 µM
[29] = second compound 3.16 µM, first compound 3.16 µM
[30] = second compound 3.16 µM, first compound 10 µM
[31] = second compound 10 µM, first compound 0.0316 µM
[32] = second compound 10 µM, first compound 0.1 µM
[33] = second compound 10 µM, first compound 0.316 µM
[34] = second compound 10 µM, first compound 1 µM
[35] = second compound 10 µM, first compound 3.16 µM
[36] = second compound 10 µM, first compound 10 µM
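Further: spheroids exposed to compounds for seven days before readout.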
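Wherever viability, T/C is given: 100% = DMSO vehicle control viability.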

C=CC(=O)N1CCN(c2nc(=O)n(-c3c(C)ccnc3C(C)C)c3nc(-c4c(O)cccc4F)c(F)cc23)C(C)C1 (stereo not drawn) + COC1C(OC(N)=O)C(O)C(Oc2ccc3c(O)c(NC(=O)c4ccc(O)c(CC=C(C)C)c4)c(=O)oc3c2C)OC1(C)C
IC50 (second compound 0.0316 µM): > 10 µM | IC50 (second compound 0.1 µM): > 10 µM | IC50 (second compound 0.316 µM): > 10 µM | IC50 (second compound 1 µM): > 10 µM | IC50 (second compound 3.16 µM): > 10 µM | IC50 (second compound 10 µM): > 10 µM | viability, T/C [1]: 95.8% | viability, T/C [2]: 93.5% | viability, T/C [3]: 104% | viability, T/C [4]: 101% | viability, T/C [5]: 104% | viability, T/C [6]: 91.4% | viability, T/C [7]: 96.7% | viability, T/C [8]: 105% | viability, T/C [9]: 98% | viability, T/C [10]: 101% | viability, T/C [11]: 106% | viability, T/C [12]: 96.9% | viability, T/C [13]: 103% | viability, T/C [14]: 96.3% | viability, T/C [15]: 99.7% | viability, T/C [16]: 101% | viability, T/C [17]: 107% | viability, T/C [18]: 98.6% | viability, T/C [19]: 106% | viability, T/C [20]: 105% | viability, T/C [21]: 97.6% | viability, T/C [22]: 101% | viability, T/C [23]: 109% | viability, T/C [24]: 98.8% | viability, T/C [25]: 98.1% | viability, T/C [26]: 101% | viability, T/C [27]: 101% | viability, T/C [28]: 104% | viability, T/C [29]: 98.5% | viability, T/C [30]: 102% | viability, T/C [31]: 103% | viability, T/C [32]: 92.8% | viability, T/C [33]: 98.8% | viability, T/C [34]: 109% | viability, T/C [35]: 106% | viability, T/C [36]: 98.8%

CCc1cc2c(N3CCc4c(cc(Cn5ccnc5)cc4-c4cn(C)nc4C(F)(F)F)C3=O)ccnc2c(OC)n1 + COC1C(OC(N)=O)C(O)C(Oc2ccc3c(O)c(NC(=O)c4ccc(O)c(CC=C(C)C)c4)c(=O)oc3c2C)OC1(C)C
IC50 (second compound 0.0316 µM): > 10 µM | IC50 (second compound 0.1 µM): > 10 µM | IC50 (second compound 0.316 µM): > 10 µM | IC50 (second compound 1 µM): > 10 µM | IC50 (second compound 3.16 µM): > 10 µM | IC50 (second compound 10 µM): > 10 µM | viability, T/C [1]: 95.2% | viability, T/C [2]: 104% | viability, T/C [3]: 97.5% | viability, T/C [4]: 95.2% | viability, T/C [5]: 91.6% | viability, T/C [6]: 95.3% | viability, T/C [7]: 100% | viability, T/C [8]: 103% | viability, T/C [9]: 96.1% | viability, T/C [10]: 90.7% | viability, T/C [11]: 99.2% | viability, T/C [12]: 95.2% | viability, T/C [13]: 107% | viability, T/C [14]: 107% | viability, T/C [15]: 101% | viability, T/C [16]: 109% | viability, T/C [17]: 91.5% | viability, T/C [18]: 90.3% | viability, T/C [19]: 110% | viability, T/C [20]: 106% | viability, T/C [21]: 99.4% | viability, T/C [22]: 92.9% | viability, T/C [23]: 93.1% | viability, T/C [24]: 87.6% | viability, T/C [25]: 99.6% | viability, T/C [26]: 109% | viability, T/C [27]: 99.4% | viability, T/C [28]: 92% | viability, T/C [29]: 93% | viability, T/C [30]: 89.6% | viability, T/C [31]: 106% | viability, T/C [32]: 93.7% | viability, T/C [33]: 99.1% | viability, T/C [34]: 101% | viability, T/C [35]: 102% | viability, T/C [36]: 94.5%

CC(C)n1c(=O)n(C)c2cnc3cc(F)c(-c4ccc(OCCCN5CCCCC5)nc4)cc3c21 + Cc1cccc(N(C)C(=O)C2C(O)CCN2c2nc(C)cc(C(F)(F)F)c2C#N)c1
IC50 (second compound 0.0316 µM): > 10 µM | IC50 (second compound 0.1 µM): > 10 µM | IC50 (second compound 0.316 µM): > 10 µM | IC50 (second compound 1 µM): > 10 µM | IC50 (second compound 3.16 µM): > 10 µM | IC50 (second compound 10 µM): > 10 µM | viability, T/C [1]: 103% | viability, T/C [2]: 106% | viability, T/C [3]: 109% | viability, T/C [4]: 116% | viability, T/C [5]: 99.8% | viability, T/C [6]: 93.9% | viability, T/C [7]: 115% | viability, T/C [8]: 105% | viability, T/C [9]: 107% | viability, T/C [10]: 111% | viability, T/C [11]: 109% | viability, T/C [12]: 94% | viability, T/C [13]: 103% | viability, T/C [14]: 104% | viability, T/C [15]: 108% | viability, T/C [16]: 107% | viability, T/C [17]: 110% | viability, T/C [18]: 102% | viability, T/C [19]: 108% | viability, T/C [20]: 103% | viability, T/C [21]: 108% | viability, T/C [22]: 115% | viability, T/C [23]: 108% | viability, T/C [24]: 87.4% | viability, T/C [25]: 93.5% | viability, T/C [26]: 111% | viability, T/C [27]: 96.9% | viability, T/C [28]: 112% | viability, T/C [29]: 103% | viability, T/C [30]: 81.5% | viability, T/C [31]: 96.5% | viability, T/C [32]: 93.6% | viability, T/C [33]: 108% | viability, T/C [34]: 101% | viability, T/C [35]: 97.6% | viability, T/C [36]: 87.4%

O=C(c1cc(Cc2n[nH]c(=O)c3ccccc23)ccc1F)N1CCN(C(=O)C2CC2)CC1 + Cc1cccc(N(C)C(=O)C2C(O)CCN2c2nc(C)cc(C(F)(F)F)c2C#N)c1
IC50 (second compound 0.0316 µM): > 10 µM | IC50 (second compound 0.1 µM): > 10 µM | IC50 (second compound 0.316 µM): > 10 µM | IC50 (second compound 1 µM): > 10 µM | IC50 (second compound 3.16 µM): > 10 µM | IC50 (second compound 10 µM): > 10 µM | viability, T/C [1]: 95.8% | viability, T/C [2]: 103% | viability, T/C [3]: 107% | viability, T/C [4]: 107% | viability, T/C [5]: 95% | viability, T/C [6]: 92.1% | viability, T/C [7]: 103% | viability, T/C [8]: 98.7% | viability, T/C [9]: 101% | viability, T/C [10]: 109% | viability, T/C [11]: 94.4% | viability, T/C [12]: 101% | viability, T/C [13]: 103% | viability, T/C [14]: 100% | viability, T/C [15]: 98.4% | viability, T/C [16]: 108% | viability, T/C [17]: 102% | viability, T/C [18]: 97.1% | viability, T/C [19]: 103% | viability, T/C [20]: 106% | viability, T/C [21]: 102% | viability, T/C [22]: 103% | viability, T/C [23]: 98.8% | viability, T/C [24]: 98.8% | viability, T/C [25]: 94% | viability, T/C [26]: 106% | viability, T/C [27]: 98.4% | viability, T/C [28]: 98.3% | viability, T/C [29]: 103% | viability, T/C [30]: 95.2% | viability, T/C [31]: 97.9% | viability, T/C [32]: 91.4% | viability, T/C [33]: 95.3% | viability, T/C [34]: 98.3% | viability, T/C [35]: 97.5% | viability, T/C [36]: 83.6%
